Measurements reported in ChEMBL document CHEMBL3045657, “Synthesis and biological evaluation of naphthalene, furan and pyrrole based chalcones as cytotoxic and antimicrobial agents” (2012).
Values after ≈ are worked out from the molar mass of the structure shown.

Assays:
Assay type in all cases: functional
OVCAR = assay: Cytotoxicity against Homo sapiens (human) OVCAR cells assessed as cell growth inhibition at 1 x 10^-5 M after 48 hr by SRB assay; conditions: read-out: GI
Candida albicans = assay: Antifungal activity against Candida albicans MTCC 3018 after 48 hr by serial tube dilution method; conditions: MTCC 3018, 48 h
Aspergillus niger = assay: Antifungal activity against Aspergillus niger MTCC 1344 after 48 hr by serial tube dilution method; conditions: MTCC 1344, 48 h
Pseudomonas aeruginosa = assay: Antibacterial activity against Pseudomonas aeruginosa MTCC 2642 after 24 hr by serial tube dilution method; conditions: MTCC 2642, 24 h
Salmonella typhi = assay: Antibacterial activity against Salmonella enterica subsp. enterica serovar Typhi MTCC 1251 after 24 hr by serial tube dilution method; conditions: MTCC 1251, 24 h
Escherichia coli = assay: Antibacterial activity against Escherichia coli MTCC 82 after 24 hr by serial tube dilution method; conditions: MTCC 82, 24 h
Staphylococcus aureus = assay: Antibacterial activity against Staphylococcus aureus MTCC 96 after 24 hr by serial tube dilution method; conditions: MTCC 96, 24 h
Bacillus subtilis = assay: Antibacterial activity against Bacillus subtilis MTCC 2451 after 24 hr by serial tube dilution method; conditions: MTCC 2451, 24 h
HEp-2 = assay: Cytotoxicity against Homo sapiens (human) Hep2 cells assessed as cell growth inhibition at 1 x 10^-5 M after 48 hr by SRB assay; conditions: HEp-2, 48 h, read-out: GI
IMR-32 = assay: Cytotoxicity against Homo sapiens (human) IMR32 cells assessed as cell growth inhibition at 1 x 10^-5 M after 48 hr by SRB assay; conditions: IMR-32, 48 h, read-out: GI
PC-3 = assay: Cytotoxicity against Homo sapiens (human) PC3 cells assessed as cell growth inhibition at 1 x 10^-5 M after 48 hr by SRB assay; conditions: PC-3, 48 h, read-out: GI

COc1cc(/C=C/C(=O)c2ccco2)cc(OC)c1OC
inhibition of growth at 10 µM (OVCAR): 28%
MIC (Candida albicans): 62.5 µg/mL (≈ 217 µM)
MIC (Aspergillus niger): 62.5 µg/mL (≈ 217 µM)
MIC (Pseudomonas aeruginosa): 15.6 µg/mL (≈ 54.1 µM)
MIC (Salmonella typhi): 31.2 µg/mL (≈ 108 µM)
MIC (Escherichia coli): 62.5 µg/mL (≈ 217 µM)
MIC (Staphylococcus aureus): 15.6 µg/mL (≈ 54.1 µM)
MIC (Bacillus subtilis): 31.2 µg/mL (≈ 108 µM)
inhibition of growth at 10 µM (HEp-2): 47%
inhibition of growth at 10 µM (IMR-32): 49%
inhibition of growth at 10 µM (PC-3): 42%
